The record followed here is patent US12582116B2, “Agricultural formulations” (Dow Global Technologies LLC, priority 2020, dated 2026).

A short description of data set [1]: Solubility of agricultural active ingredients in solvent by visual observation, Formula 1 Solvent A vs aromatic hydrocarbon (Example 2). How it is done:
The aromatic hydrocarbon solvent used is Aromatic 150 from Exxon Mobil Corporation (“Aromatic Hydrocarbon”). The agricultural active ingredients used are bifenthrin, tebuconazole, nitrapyrin, and dicamba acid.
(§1) The solubilities are determined by visual observation using the following method. Four milliliter vials are charged with agricultural active ingredient (10 to 50 wt %) and the specified solvent (90 to 50 wt %). The vials are capped and taped to seal with electric tape. The vials are secured in a plastic container and shaken on a laboratory shaker for 12 hours at ambient laboratory temperature and humidity. After 12 hours, each sample set is evaluated for solubility of the agricultural active ingredient solid. Complete solubilization of the agricultural active ingredient is determined to be achieved if a homogeneous clear solution is observed. The formulations made with Formula 1 Solvent A represent some embodiments of agricultural formulations of the present invention.

Data set [2] in a line: Solubility of agricultural active ingredients in solvent by visual observation, Formula 1 Solvent A vs N,N-dialkyl fatty amide (Example 3). As for the experimental part:
The N,N-dialkyl fatty amide solvent used is HALLCOMID™ M-10’, which is a N,N-dimethyldecanamide from Stepan Company (“N,N-dialkyl Fatty Amide”). The agricultural active ingredients used are bifenthrin, tebuconazole, nitrapyrin, and dicamba acid.
as §1

Data set [3] is described as follows: Mutual solubility of Formula 1 solvent and water (Example 1). Format: physicochemical. The following applies: for solubility in water: solvent dissolved in water. How it is done: The solubility of Formula 1 Solvent A in water is measured to be 0.67 weight percent. The solubility of water in Formula 1 Solvent A is measured to be 1.44 weight percent.
Setting [4] is: in Aromatic Hydrocarbon (Aromatic 150, Exxon Mobil), shaken 12 hours at ambient laboratory temperature, visual observation, Table 2.
Where [5] appears, read: in Formula 1 Solvent A (ethyl 2-furoate, Ethyl 408), shaken 12 hours at ambient laboratory temperature, visual observation, Table 3.
[6] abbreviates: in N,N-dialkyl Fatty Amide (HALLCOMID M-10, N,N-dimethyldecanamide), shaken 12 hours at ambient laboratory temperature, visual observation, Table 3.
Where [7] appears, read: in Formula 1 Solvent A (ethyl 2-furoate, Ethyl 408), shaken 12 hours at ambient laboratory temperature, visual observation, Table 2.

Take `Clc1cccc(C(Cl)(Cl)Cl)n1` [Nitrapyrin, nitrapyrin]: the “Agricultural Active Ingredient Solubility” value in data set [1] and in data set [2] was greater than 50 wt % throughout.

As to `CCOC(=O)c1ccco1` [Formula 1 Solvent A, ethyl 2-furoate], the solubility in water in data set [3] came to 0.67 weight percent. Besides, the “solubility of water in Formula 1 Solvent A” value in data set [3] (water dissolved in the solvent) is reported as 1.44 weight percent.

Regarding `CC(C)(C)C(O)(CCc1ccc(Cl)cc1)Cn1cncn1` (centres unmarked) [Tebuconazole, tebuconazole], the “Agricultural Active Ingredient Solubility” value is 20 wt % in data set [1], less than 10 wt % in data set [1] (setting [4]), 20 wt % in data set [2] (setting [5]) and 30 wt % in data set [2] (setting [6]).

For the molecule `COc1c(Cl)ccc(Cl)c1C(=O)O` [Dicamba Acid, dicamba acid], the “Agricultural Active Ingredient Solubility” value in data set [1] (setting [4]) is less than 10 wt %; in data set [1] (setting [7]) it was 40 wt %; in data set [2] (setting [5]), 40 wt %; in data set [2] (setting [6]) it was less than 10 wt %.

As for `Cc1c(COC(=O)[C@@H]2[C@H](/C=C(\Cl)C(F)(F)F)C2(C)C)cccc1-c1ccccc1` (racemic) [Bifenthrin, bifenthrin], the “Agricultural Active Ingredient Solubility” value in data set [1] (setting [4]) is 40 wt %; in data set [1] (setting [7]), 30 wt %; in data set [2] (setting [5]), 30 wt %; in data set [2] (setting [6]), 30 wt %.

In data set [3], 5-methyl-2-furoate gave a solubility in water of 0.67 weight percent.
